Bridge positions count the residues as written; N and C are the ends. Square brackets hold non-standard residues; d marks the D form. Peptide text beside a SMILES is read from it. * marks the point of attachment. Ala(imidazo(1,2-a)pyr3yl) = N[C@@H](Cc1cnc2ccccn12)C(=O)O; Trp(1-CH2COOH) = N[C@@H](Cc1cn(CC(=O)O)c2ccccc12)C(=O)O; Nle(6-morpholino) = N[C@@H](CCCCN1CCOCC1)C(=O)O; Phe(3-COOH) = N[C@@H](Cc1cccc(C(=O)O)c1)C(=O)O; NMePhe(3-OMe) = CN[C@@H](Cc1cccc(OC)c1)C(=O)O; Trp(7-aza) = N[C@@H](Cc1c[nH]c2ncccc12)C(=O)O; NMePhe(3-Cl) = CN[C@@H](Cc1cccc(Cl)c1)C(=O)O; 3Pal(6-NH2) = Nc1ccc(C[C@H](N)C(=O)O)cn1; Lys(N3) = [N-]=[N+]=NCCCC[C@H](N)C(=O)O; NMe4Pal = CN[C@@H](Cc1ccncc1)C(=O)O; NMeY = CN[C@@H](Cc1ccc(O)cc1)C(=O)O; Nva(3-Et) = CCC(CC)[C@H](N)C(=O)O; 4Pal = N[C@@H](Cc1ccncc1)C(=O)O; PEG4 = NCCOCCOCCOCCOCCC(=O)O; Carboxymethyl = O=C(O)C*
Assays:
[1] = target: T1, human transferrin receptor (hTfR) (Homo sapiens, UniProt P02786); assay: SPR measurement under pH 6.0 conditions (Biacore T200, NTA chip, immobilized hTfR); type: binding; conditions: read-out: hTfR SPR pH6.0 KD
[2] = target: T1, human transferrin receptor (hTfR); assay: SPR measurement under pH 7.4 conditions (Biacore T200, CM3 chip, hTfR captured by His Tag antibody); type: binding; conditions: read-out: hTfR SPR pH7.4 KD
[3] = SPR, pH 6.0, peptide with the linker named in the table
[4] = SPR, pH 7.4, peptide with the linker named in the table

T1 sequence (P02786 whole entry): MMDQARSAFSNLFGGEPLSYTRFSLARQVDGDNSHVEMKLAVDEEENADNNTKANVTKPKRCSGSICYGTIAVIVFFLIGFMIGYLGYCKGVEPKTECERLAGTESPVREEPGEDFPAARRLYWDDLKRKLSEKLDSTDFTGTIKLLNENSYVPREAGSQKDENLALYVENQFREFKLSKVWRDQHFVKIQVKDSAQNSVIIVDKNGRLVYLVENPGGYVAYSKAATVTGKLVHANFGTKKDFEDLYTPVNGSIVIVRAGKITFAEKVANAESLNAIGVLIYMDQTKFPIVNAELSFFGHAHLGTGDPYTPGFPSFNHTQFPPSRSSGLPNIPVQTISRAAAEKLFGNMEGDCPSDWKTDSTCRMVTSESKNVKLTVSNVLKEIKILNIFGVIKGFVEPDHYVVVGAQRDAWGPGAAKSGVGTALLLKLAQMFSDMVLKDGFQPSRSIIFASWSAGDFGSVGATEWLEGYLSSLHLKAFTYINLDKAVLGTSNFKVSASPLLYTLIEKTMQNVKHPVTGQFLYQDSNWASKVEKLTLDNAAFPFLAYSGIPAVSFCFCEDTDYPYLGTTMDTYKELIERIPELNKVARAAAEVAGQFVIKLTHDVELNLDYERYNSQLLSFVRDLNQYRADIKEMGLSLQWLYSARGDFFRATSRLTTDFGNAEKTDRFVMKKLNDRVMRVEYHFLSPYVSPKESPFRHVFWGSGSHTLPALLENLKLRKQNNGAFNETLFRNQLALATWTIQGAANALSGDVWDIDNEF

Compound | Kd ([1]; pH 6.0, single-cycle kinetics) | Kd ([2]; pH 7.4, single-cycle kinetics) | Kd [1, 3] | Kd [2, 4]
CC[C@H](C)[C@@H]1NC(=O)[C@H](Cc2ccc(OCC(=O)O)cc2)NC(=O)[C@H](Cc2ccc(O)cc2)NC(=O)[C@H](CC(N)=O)NC(=O)[C@H](Cc2c[nH]c3ncccc23)NC(=O)[C@H](C(C)C)NC(=O)[C@H](Cc2cccc(Cl)c2)N(C)C(=O)[C@H](C(C)C)NC(=O)[C@H](C)NC(=O)CSC[C@@H](C(=O)NCCOCCOCCOCCOCCC(N)=O)NC(=O)[C@H](Cc2ccc(O)cc2)N(C)C(=O)[C@H](Cc2ccncc2)NC(=O)[C@H](CCCNC(=N)N)NC(=O)[C@H](CCC(=O)NCCOCCOCCOCCOCCC(=O)O)NC(=O)[C@H]([C@@H](C)CC)NC1=O [compound 63] | 87.7 nM | 23.6 nM | – | –
CC[C@H](C)[C@@H]1NC(=O)[C@H](Cc2ccc(OC)cc2)NC(=O)[C@H](Cc2ccc(N)nc2)NC(=O)[C@H](CC(N)=O)NC(=O)[C@H](Cc2cnc3ccccn23)NC(=O)[C@H](C(C)C)NC(=O)[C@H](Cc2cccc(Cl)c2)N(C)C(=O)[C@H](C(C)C)NC(=O)[C@H](C)NC(=O)CSC[C@@H](C(=O)NCCOCCOCCOCCOCCC(N)=O)NC(=O)[C@H](Cc2ccc(O)cc2)N(C)C(=O)[C@H](Cc2ccncc2)NC(=O)[C@H](CCCNC(=N)N)NC(=O)[C@H](CCCNC(=N)N)NC(=O)[C@H]([C@@H](C)CC)NC1=O [compound 65] ({CH2CO}-AV[NMePhe(3-Cl)]V[Ala(imidazo(1,2-a)pyr3yl)]N[3Pal(6-NH2)]Y(Me)IIRR[4Pal][NMeY]C[PEG4]-NH2; thioether N-15) | 56.5 nM | 5.43 nM | – | –
CC[C@H](C)[C@@H]1NC(=O)[C@H](Cc2ccc(OC)cc2)NC(=O)[C@H](Cc2ccc(N)nc2)NC(=O)[C@H](CC(N)=O)NC(=O)[C@H](Cc2c[nH]c3ncccc23)NC(=O)[C@H](C(C)C)NC(=O)[C@H](Cc2cccc(Cl)c2)N(C)C(=O)[C@H](C(C)C)NC(=O)[C@H](C)NC(=O)CSC[C@@H](C(=O)NCC(=O)N[C@@H](CCCCN=[N+]=[N-])C(N)=O)NC(=O)[C@H](Cc2ccc(O)cc2)N(C)C(=O)[C@H](Cc2ccncc2)NC(=O)[C@H](CCCNC(=N)N)NC(=O)[C@H](CCCNC(=N)N)NC(=O)[C@H]([C@@H](C)CC)NC1=O [compound 66] | 16.1 nM | 2.27 nM | – | –
CCC(CC)[C@@H]1NC(=O)[C@H](Cc2ccc(OCC(=O)O)cc2)NC(=O)[C@H](Cc2ccc(O)cc2)NC(=O)[C@H](CC(N)=O)NC(=O)[C@H](Cc2cnc3ccccn23)NC(=O)[C@H](C(C)C)NC(=O)[C@H](Cc2cccc(Cl)c2)N(C)C(=O)[C@H](C(C)C)NC(=O)[C@H](C)NC(=O)CSC[C@@H](C(=O)NCC(=O)N[C@@H](CCCCN=[N+]=[N-])C(N)=O)NC(=O)[C@H](Cc2ccc(O)cc2)N(C)C(=O)[C@H](Cc2cccc(C(=O)O)c2)NC(=O)[C@H](CCCNC(=N)N)NC(=O)[C@H](CCC(N)=O)NC(=O)[C@H]([C@@H](C)CC)NC1=O [compound 67] ({CH2CO}-AV[NMePhe(3-Cl)]V[Ala(imidazo(1,2-a)pyr3yl)]NYY(Carboxymethyl)[Nva(3-Et)]IQR[Phe(3-COOH)][NMeY]CG[Lys(N3)]-NH2; thioether N-15) | 444 nM | 21.6 nM | – | –
CC[C@H](C)[C@@H]1NC(=O)[C@H](Cc2ccc(OC)cc2)NC(=O)[C@H](Cc2ccc(N)nc2)NC(=O)[C@H](CC(N)=O)NC(=O)[C@H](Cc2c[nH]c3ncccc23)NC(=O)[C@H](C(C)C)NC(=O)[C@H](Cc2cccc(Cl)c2)N(C)C(=O)[C@H](C(C)C)NC(=O)[C@H](C)NC(=O)CSC[C@@H](C(=O)NCC(=O)N[C@@H](CCCCN=[N+]=[N-])C(N)=O)NC(=O)[C@H](Cc2ccc(O)cc2)N(C)C(=O)[C@H](Cc2ccncc2)NC(=O)[C@H](CCCCN2CCOCC2)NC(=O)[C@H](CCCCN2CCOCC2)NC(=O)[C@H]([C@@H](C)CC)NC1=O [compound 68] ({CH2CO}-AV[NMePhe(3-Cl)]V[Trp(7-aza)]N[3Pal(6-NH2)]Y(Me)II[Nle(6-morpholino)][Nle(6-morpholino)][4Pal][NMeY]CG[Lys(N3)]-NH2; thioether N-15) | 12.4 nM | 2.06 nM | – | –
CCC(CC)[C@@H]1NC(=O)[C@H](Cc2ccc(OCC(=O)O)cc2)NC(=O)[C@H](Cc2ccc(O)cc2)NC(=O)[C@H](CC(N)=O)NC(=O)[C@H](Cc2cn(CC(=O)O)c3ccccc23)NC(=O)[C@H](C(C)C)NC(=O)[C@H](Cc2cccc(Cl)c2)N(C)C(=O)[C@H](C(C)C)NC(=O)[C@H](C)NC(=O)CSC[C@@H](C(=O)NCCOCCOCCOCCOCCC(N)=O)NC(=O)[C@H](Cc2cccc(Cl)c2)N(C)C(=O)[C@H](Cc2cccc(C(=O)O)c2)NC(=O)[C@H](CCCNC(=N)N)NC(=O)[C@H](CCC(N)=O)NC(=O)[C@H]([C@@H](C)CC)NC1=O [compound 94] ({CH2CO}-AV[NMePhe(3-Cl)]V[Trp(1-CH2COOH)]NYY(Carboxymethyl)[Nva(3-Et)]IQR[Phe(3-COOH)][NMePhe(3-Cl)]C[PEG4]-NH2; thioether N-15) | – | – | 62 nM | 12 nM
CCC(CC)[C@@H]1NC(=O)[C@H](Cc2ccc(OCC(=O)O)cc2)NC(=O)[C@H](Cc2ccc(O)cc2)NC(=O)[C@H](CC(N)=O)NC(=O)[C@H](Cc2cn(CC(=O)O)c3ccccc23)NC(=O)[C@H](C(C)C)NC(=O)[C@H](Cc2cccc(Cl)c2)N(C)C(=O)[C@H](C(C)C)NC(=O)[C@H](C)NC(=O)CSC[C@@H](C(=O)NCCOCCOCCOCCOCCC(N)=O)NC(=O)[C@H](Cc2cccc(OC)c2)N(C)C(=O)[C@H](Cc2cccc(C(=O)O)c2)NC(=O)[C@H](CCCNC(=N)N)NC(=O)[C@H](CCC(N)=O)NC(=O)[C@H]([C@@H](C)CC)NC1=O [compound 95] ({CH2CO}-AV[NMePhe(3-Cl)]V[Trp(1-CH2COOH)]NYY(Carboxymethyl)[Nva(3-Et)]IQR[Phe(3-COOH)][NMePhe(3-OMe)]C[PEG4]-NH2; thioether N-15) | – | – | 67.9 nM | 10.6 nM
CCC(CC)[C@@H]1NC(=O)[C@H](Cc2ccc(OCC(=O)O)cc2)NC(=O)[C@H](Cc2ccc(O)cc2)NC(=O)[C@H](CC(N)=O)NC(=O)[C@H](Cc2cn(CC(=O)O)c3ccccc23)NC(=O)[C@H](C(C)C)NC(=O)[C@H](Cc2cccc(Cl)c2)N(C)C(=O)[C@H](C(C)C)NC(=O)[C@H](C)NC(=O)CSC[C@@H](C(=O)NCCOCCOCCOCCOCCC(N)=O)NC(=O)[C@H](Cc2ccncc2)N(C)C(=O)[C@H](Cc2cccc(C(=O)O)c2)NC(=O)[C@H](CCCNC(=N)N)NC(=O)[C@H](CCC(N)=O)NC(=O)[C@H]([C@@H](C)CC)NC1=O [compound 96] ({CH2CO}-AV[NMePhe(3-Cl)]V[Trp(1-CH2COOH)]NYY(Carboxymethyl)[Nva(3-Et)]IQR[Phe(3-COOH)][NMe4Pal]C[PEG4]-NH2; thioether N-15) | – | – | 91.9 nM | 18.2 nM
CCC(CC)[C@@H]1NC(=O)[C@H](Cc2ccc(OCC(=O)O)cc2)NC(=O)[C@H](Cc2ccc(O)cc2)NC(=O)[C@H](CC(N)=O)NC(=O)[C@H](Cc2cn(CC(=O)O)c3ccccc23)NC(=O)[C@H](C(C)C)NC(=O)[C@H](Cc2cccc(Cl)c2)N(C)C(=O)[C@H](C(C)C)NC(=O)[C@H](C)NC(=O)CSC[C@@H](C(=O)NCCOCCOCCOCCOCCC(N)=O)NC(=O)[C@H](Cc2ccc(O)cc2)N(C)C(=O)[C@H](Cc2cccc(C(=O)O)c2)NC(=O)[C@H](Cc2c[nH]cn2)NC(=O)[C@H](CCC(N)=O)NC(=O)[C@H]([C@@H](C)CC)NC1=O [compound 98] ({CH2CO}-AV[NMePhe(3-Cl)]V[Trp(1-CH2COOH)]NYY(Carboxymethyl)[Nva(3-Et)]IQH[Phe(3-COOH)][NMeY]C[PEG4]-NH2; thioether N-15) | – | – | 145 nM | 20.6 nM
